The values that follow come from US5780589A, “Ultraselective opioidmimetic peptides and pharmacological and therapeutic uses thereof” (The United States of America as represented by the …, priority 1994, dated 1998).

For assay [1], the target named is δ receptors (Mus musculus, UniProt P32300). The conditions noted are these: for antagonist properties in MVD bioassay: in vitro mouse vas deferens. As to the method: (§1) The in vitro pharmacological assays were undertaken using published methods (32) based on the organ bath technique of Kosterlitz and Watt (50). For μ receptors, a 2-3 cm segment of guinea-pig ileum (GPI) mounted in a 20 mL organ bath and for δ receptors, a single mouse vas deferens (MVD) was obtained from a mature animal.
δ receptors, sequence (P32300 whole entry): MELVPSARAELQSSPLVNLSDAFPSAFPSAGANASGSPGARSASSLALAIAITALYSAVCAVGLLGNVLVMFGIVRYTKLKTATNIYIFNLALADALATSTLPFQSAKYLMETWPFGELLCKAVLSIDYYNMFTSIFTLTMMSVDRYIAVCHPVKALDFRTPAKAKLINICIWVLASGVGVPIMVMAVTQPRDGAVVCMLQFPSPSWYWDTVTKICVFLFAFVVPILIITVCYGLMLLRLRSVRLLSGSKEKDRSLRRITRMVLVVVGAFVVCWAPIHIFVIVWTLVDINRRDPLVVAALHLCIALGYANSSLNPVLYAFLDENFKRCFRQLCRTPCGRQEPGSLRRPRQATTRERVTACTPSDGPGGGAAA

Assay [2] deals with μ receptors (Cavia porcellus, UniProt P97266). The assay is described as follows: Guinea-pig ileum (GPI) bioassay, electrically stimulated contractions. As to the method: as §1
μ receptors, sequence (P97266 whole entry, looked up): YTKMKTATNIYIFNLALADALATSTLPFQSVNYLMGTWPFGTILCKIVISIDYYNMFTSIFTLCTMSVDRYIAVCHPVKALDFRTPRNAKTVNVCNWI
Assay [3] deals with T1, δ receptor (Rattus norvegicus, UniProt P33533).
T1 construct: Rat membrane synaptosome preparations (P2 fraction) were prepared as detailed previously; from tissue; host or cells: rat synaptosomal membranes (P2 fraction)
T1 sequence (P33533 whole entry): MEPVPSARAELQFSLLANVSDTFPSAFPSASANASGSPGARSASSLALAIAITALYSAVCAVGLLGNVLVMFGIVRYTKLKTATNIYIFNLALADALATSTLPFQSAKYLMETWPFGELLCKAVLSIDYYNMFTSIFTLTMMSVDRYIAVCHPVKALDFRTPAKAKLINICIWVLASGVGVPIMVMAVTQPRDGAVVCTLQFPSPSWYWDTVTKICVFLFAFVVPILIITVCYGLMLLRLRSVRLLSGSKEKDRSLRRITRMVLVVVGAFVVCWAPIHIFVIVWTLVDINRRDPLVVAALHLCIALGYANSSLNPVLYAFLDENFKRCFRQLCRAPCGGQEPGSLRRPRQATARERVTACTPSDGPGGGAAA
The assay is described as follows: Multi-site (one- vs two-site) δ receptor binding analysis. The conditions noted are these: for Ki: Prism fit; for δ receptor binding model fitted: one-site vs two-site; for Percent low-affinity sites: two-site δ receptor fit. As to the method: (§2) Rat membrane synaptosome preparations (P2 fraction) were prepared as detailed previously, which included a preincubation step to reduce the presence of endogenous ligands and binding of G proteins (33,40). […] Samples were rapidly filtered through wetted glass fiber filters and thoroughly washed with 6 mL (3×2 mL) ice-cold 50 mM Tris-HCl, pH 7.5, containing 0.01-0.1% chicken egg albumin or bovine serum albumin. […] The filters were dried at 70° C. and the radioactivity determined after an overnight incubation period in CytoScint to maximize the radioactivity detected and reduce variability between samples. The IC50 values were converted to affinity constants (Ki) according to Cheng and Prusoff (48).
Multi-site binding analyses, based on stringent statistical methods, were performed as described in Bryant et al. (41) and Attila et al. (49). Receptor assays were conducted in triplicate with 25-35 graded concentrations of peptide; the resulting curves were both individually assessed and combined from several distinct assays, and analyzed using Prism™ (v. 1.02, GraphPad, San Diego, Calif.).

Assay [4] deals with T2, δ opioid receptor (Rattus norvegicus, UniProt P33533).
T2 construct: Rat membrane synaptosome preparations (P2 fraction) were prepared as detailed previously; from tissue; host or cells: rat synaptosomal membranes (P2 fraction)
T2 sequence (P33533 whole entry): as above
Kind of assay: δ receptor binding, rat membrane synaptosomes, [3H]DPDPE. The conditions noted are these: for Ki: [3H]DPDPE, rat synaptosomes (P2), mean ± SEM; for μ/δ (receptor selectivity): ratio Ki μ / Ki δ; for selectivity change on D-Tic substitution: δ→μ. Here is the method:
as §2

Assay [5] concerns the target T3, μ receptor (Rattus norvegicus, UniProt P33535).
T3 construct: Rat membrane synaptosome preparations (P2 fraction) were prepared as detailed previously; from tissue; host or cells: rat synaptosomal membranes (P2 fraction)
The assay is described as follows: μ receptor binding, rat membrane synaptosomes, [3H]DAGO. The conditions noted are these: rat synaptosomes (P2), mean ± SEM. Here is the method: as §2

Assay [6] deals with T2, δ opioid receptor. The settings on record: data from Temussi et al. (39), cited from earlier work; for Ki: [3H]DPDPE; for μ/δ (receptor selectivity): ratio Ki μ / Ki δ.
Assay [7] has as its target T3, μ receptor. The conditions noted are these: [3H]DAGO; data from Temussi et al. (39); cited from earlier work.
Where [8] appears, read: concentration equivalent of pA2, against deltorphin C.
The mark [9] stands for this setting: high affinity δ site, read-out: Ki (nM) High.
Setting [10] is: low affinity δ site, read-out: Ki (nM) Low.
[11] abbreviates: guinea-pig ileum, read-out: GPI IC50.

What is called Ki is the dissociation constant of the complex between target and ligand, obtained from inhibition or displacement. In general, IC50 refers to the midpoint of a concentration-inhibition curve.

Like-named read-outs stand apart in the source and are kept apart here. Non-standard residues stand in square brackets, D forms with d. Residues, ends and D or L forms follow the SMILES beside them. No end group written: not given here. Dmt = Cc1cc(O)cc(C)c1C[C@H](N)C(=O)O; Tic = O=C(O)[C@@H]1Cc2ccccc2CN1; dTic = O=C(O)[C@H]1Cc2ccccc2CN1

T3 sequence (P33535 whole entry): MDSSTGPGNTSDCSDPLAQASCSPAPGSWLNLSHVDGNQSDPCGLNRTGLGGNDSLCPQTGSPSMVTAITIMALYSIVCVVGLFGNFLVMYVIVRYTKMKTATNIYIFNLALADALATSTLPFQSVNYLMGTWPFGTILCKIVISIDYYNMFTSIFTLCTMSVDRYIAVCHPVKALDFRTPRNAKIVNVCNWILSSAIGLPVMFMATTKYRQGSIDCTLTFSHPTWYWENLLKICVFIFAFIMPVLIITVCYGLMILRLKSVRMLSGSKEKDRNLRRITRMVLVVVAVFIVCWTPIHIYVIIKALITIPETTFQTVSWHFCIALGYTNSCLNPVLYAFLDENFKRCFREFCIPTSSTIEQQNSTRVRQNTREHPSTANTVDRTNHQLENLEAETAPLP

`Oc1ccc2c3c1O[C@H]1c4[nH]c5ccccc5c4C[C@@]4(O)[C@@H](C2)N(CC2CC2)CC[C@]314` [Naltrindole, naltrindole, reference compound]: in assay [1] (antagonism against deltorphin C as the agonist), the “MVD pA2” value is reported as 9.2. Moreover, in assay [1] (setting [8]), the “MVD” value is recorded as 0.7 nM. Also, in assay [2] (guinea-pig ileum), the “GPI nM (with pA2)” value is 53 nM and the “GPI pA2” value worked out at 7.3.

Consider `Cc1cc(O)cc(C)c1C[C@H](N)C(=O)N1Cc2ccccc2C[C@H]1C(N)=O` [Peptide 2, Dmt-Tic-NH2] (H-[Dmt]-[Tic]-NH2; N-terminus assumed), for which, in assay [1], the Kb is 63.1 nM and the “antagonist properties in MVD bioassay” value was “antagonist properties”. The “MVD” value in assay [1] (setting [8]) is given as 4.2 nM. For the same molecule, the Ki in assay [3] (setting [9]) stood at 1.06 nM. Moreover, in assay [3], the “δ receptor binding model fitted” value is recorded as “one-site binding model” and the Percent low-affinity sites is recorded as 6.2 ± 40.1%. In assay [4], this molecule yielded an inhibitory constant (Ki) of 1.22 ± 0.09 nM. In addition, in assay [2], the IC50 was > 10000 nM.

`Cc1cc(O)cc(C)c1C[C@H](N)C(=O)N1Cc2ccccc2C[C@@H]1C(=O)O` [Peptide 3, Dmt-D-Tic-OH] (H-[Dmt]-[dTic]-OH; N-terminus assumed): the Ki in assay [5] amounted to 224 ± 25.6 nM.

In turn, `Cc1cc(O)cc(C)c1C[C@H](N)C(=O)N1Cc2ccccc2C[C@@H]1C(N)=O` [Peptide 4, Dmt-D-Tic-NH2] (H-[Dmt]-[dTic]-NH2; N-terminus assumed) gave a Ki in assay [4] of 56.9 ± 2.9 nM.

In assay [5], `Cc1cc(O)cc(C)c1C[C@H](N)C(=O)N1Cc2ccccc2C[C@H]1CO` [Peptide 5, Dmt-Tic--CH2 OH] returned a Ki of 151 ± 16.3 nM. Besides, in assay [1], the Kb is 100 nM and the “antagonist properties in MVD bioassay” value was “antagonist properties”. Moreover, the “MVD” value in assay [1] (setting [8]) worked out at 6.6 nM. Moreover, the Ki in assay [3] (setting [9]) amounted to 0.13 nM. For the same molecule, the Ki in assay [3] (setting [10]) is 5.2 nM. In assay [3], the “δ receptor binding model fitted” value is listed as “two-site model” and the Percent low-affinity sites stood at 20.9 ± 5.3%. For the same molecule, in assay [4], the Ki turned out to be 0.44 ± 0.14 nM and the “μ/δ (receptor selectivity)” value is reported as 344. Further, in assay [2], the IC50 is > 10000 nM.

In assay [5], `Cc1cc(O)cc(C)c1C[C@@H]1NC(=O)[C@@H]2Cc3ccccc3CN2C1=O` [Peptide 6, c(Dmt-Tic)] registered a Ki of 635 ± 69.3 nM. Also, in assay [1], the Kb is 3720 nM and the “antagonist properties in MVD bioassay” value is on record as “antagonist properties”. The “MVD nM” value in assay [1] (setting [8]) is given as 3,800 nM. For the same molecule, the Ki in assay [3] (setting [9]) was 0.09 nM. In addition, the Ki in assay [3] (setting [10]) was 9.4 nM. In assay [3], the “δ receptor binding model fitted” value is given as “two-site model” and the Percent low-affinity sites was found to be 86.8 ± 3.9%. Further, the “μ/δ (receptor selectivity)” value in assay [4] was 66. The “fold higher δ affinity relative to Tyr-Tic cognate” value in assay [4] (vs Tyr-Tic-OH (peptide 12) or c(Tyr-Tic) (peptide 17)) is listed as 4,000 fold. In assay [2], this molecule yielded an IC50 of 20000 ± 2000 nM.

For the molecule `Cc1cc(O)cc(C)c1C[C@@H]1NC(=O)[C@H]2Cc3ccccc3CN2C1=O` [Peptide 7, c(Dmt-D-Tic)], the figures for the Ki in assay [5] and in assay [4] were 728 ± 72.9 nM and 499 ± 117 nM, respectively. Also, the “μ/δ (receptor selectivity)” value in assay [4] was found to be 1.5.

For `Cc1cc(O)cc(C)c1C[C@H](N)C(=O)N1Cc2ccccc2C[C@H]1C(=O)N[C@@H](C)C(=O)O` [Peptide 8, Dmt-Tic-Ala-OH] (H-[Dmt]-[Tic]-Ala-OH), the Ki in assay [5] was 5810 nM; in assay [3] (setting [9]), 0.12 nM; in assay [3] (setting [10]), 4.8 nM; in assay [4] it was 0.285 ± 0.03 nM. The Kb in assay [1] was 3.98 nM. Also, the “μ/δ (receptor selectivity)” value in assay [4] is listed as 20,396. For the same molecule, in assay [2] (setting [11]), the IC50 was > 10000 nM.

On to `Cc1cc(O)cc(C)c1C[C@H](N)C(=O)N1Cc2ccccc2C[C@H]1C(=O)N[C@@H](C)C(N)=O` [Peptide 9, Dmt-Tic-Ala-NH2] (H-[Dmt]-[Tic]-Ala-NH2), for which the Ki turned out to be 0.18 nM in assay [3] (setting [9]) and 10.7 nM in assay [3] (setting [10]). For the same molecule, in assay [4], the “μ/δ (receptor selectivity)” value came out at 195. Besides, in assay [2] (setting [11]), the 50% inhibitory concentration (IC50) was found to be 4740 ± 900 nM.

Consider `Cc1cc(O)cc(C)c1C[C@H](N)C(=O)N1Cc2ccccc2C[C@@H]1C(=O)N[C@@H](C)C(=O)O` [Peptide 10, Dmt-D-Tic-Ala-OH] (H-[Dmt]-[dTic]-Ala-OH), for which the Ki in assay [5] came to 82.8 ± 2 nM. In assay [4], the Ki was found to be 88.7 ± 13.8 nM and the “μ/δ (receptor selectivity)” value is reported as 0.93.

As for `Cc1cc(O)cc(C)c1C[C@H](N)C(=O)N1Cc2ccccc2C[C@@H]1C(=O)N[C@@H](C)C(N)=O` [Peptide 11, Dmt-D-Tic-Ala-NH2] (H-[Dmt]-[dTic]-Ala-NH2), the results for the inhibition constant (Ki) in assay [5] and in assay [4] were 5.8 ± 0.85 nM and 46.4 ± 2.7 nM, respectively. In assay [4], the “μ/δ (receptor selectivity)” value came to 0.13.

For `N[C@@H](Cc1ccc(O)cc1)C(=O)N1Cc2ccccc2C[C@H]1C(=O)O` [Peptide 12, Tyr-Tic-OH, reference compound] (H-Tyr-[Tic]-OH), in assay [4], the “μ/δ (receptor selectivity)” value amounted to 148.

The molecule `N[C@@H](Cc1ccc(O)cc1)C(=O)N1Cc2ccccc2C[C@@H]1C(=O)O` [Peptide 14, Tyr-D-Tic-OH, reference compound] (H-Tyr-[dTic]-OH) came in with a Ki in assay [5] of 26300 nM. For the same molecule, in assay [4], the affinity, expressed as Ki, was 9050 nM and the “μ/δ (receptor selectivity)” value is reported as 2.9.

As for `NC(=O)[C@H]1Cc2ccccc2CN1C(=O)[C@@H](N)Cc1ccc(O)cc1` [Peptide 15, Tyr-D-Tic-NH2] (H-Tyr-[dTic]-NH2), in assay [6], the Ki was 5960 nM and the “μ/δ (receptor selectivity)” value was 0.53. In assay [7], the Ki is 3130 nM. In addition, in assay [4], the “selectivity change on D-Tic substitution” value is reported as “reversal of selectivity”.

For `N[C@@H](Cc1ccc(O)cc1)C(=O)N1Cc2ccccc2C[C@H]1CO` [Peptide 16, Tyr-Tic-CH2 OH, reference compound], the affinity in assay [5], expressed as Ki, was 11000 nM. Moreover, in assay [4], the Ki amounted to 128 ± 34.7 nM and the “μ/δ (receptor selectivity)” value is given as 86.

Regarding `O=C1N[C@@H](Cc2ccc(O)cc2)C(=O)N2Cc3ccccc3C[C@@H]12` [Peptide 17, c(Tyr-Tic), reference compound], affinity in assay [5] was put at a Ki of 51500 nM. Also, in assay [4], the affinity corresponds to a Ki of 41800 nM and the “μ/δ (receptor selectivity)” value was found to be 1.2.

Consider `O=C1N[C@@H](Cc2ccc(O)cc2)C(=O)N2Cc3ccccc3C[C@H]12` [Peptide 18, c(Tyr-D-Tic), reference compound], for which the Ki in assay [5] was found to be 128000 nM; in assay [4], 8910 nM. For the same molecule, the “μ/δ (receptor selectivity)” value in assay [4] is given as 14.

In the case of `C[C@H](NC(=O)[C@H]1Cc2ccccc2CN1C(=O)[C@@H](N)Cc1ccc(O)cc1)C(=O)O` [Peptide 21, Tyr-D-Tic-Ala-OH, reference compound] (H-Tyr-[dTic]-Ala-OH), the Ki in assay [5] turned out to be 14000 nM; in assay [4], 2350 nM. For the same molecule, the “μ/δ (receptor selectivity)” value in assay [4] came out at 6.

`C[C@H](NC(=O)[C@H]1Cc2ccccc2CN1C(=O)[C@@H](N)Cc1ccc(O)cc1)C(N)=O` [Peptide 22, Tyr-D-Tic-Ala-NH2] (H-Tyr-[dTic]-Ala-NH2): in assay [6], the Ki is 21100 nM and the “μ/δ (receptor selectivity)” value is 0.39. In addition, the Ki in assay [7] is 8150 nM. The “selectivity change on D-Tic substitution” value in assay [4] is listed as “reversal of selectivity”.

Regarding Tyr-Tic-NH2 [Peptide 13], the values for the Ki in assay [6] and in assay [7] were 166 ± 48.1 nM and 28700 nM, respectively. Further, in assay [6], the “μ/δ (receptor selectivity)” value is 173.

Tyr-[Tic]-Ala-NH2 [Peptide 20]: in assay [6], the Ki is 55.5 ± 13.7 nM and the “μ/δ (receptor selectivity)” value was 610. Also, the Ki in assay [7] was 33800 nM.

On to Tyr-[Tic]-Ala-OH [Peptide 19], for which, in assay [6], the Ki is 56.1 ± 10.3 nM and the “μ/δ (receptor selectivity)” value is 148. In assay [7], the Ki was 8290 nM.
